Test results: US20100137433A1, “Production of Rosmarinic Acid from Spearmint and uses Thereof” (priority 2007, published 2010)

Key:
[1] = system: mild allergic asthmatic subjects; assay: Methacholine inhalation test (methacholine PC20, airway hyper-responsiveness); type: in vivo, human; conditions: tea 2 cups per day for 7 days
Protocol: (§1) Subjects. Two subjects (45 and 57 year old, male) were recruited for the study. Inclusion criteria required subjects to be non-smokers with stable, mild atopic asthma, free of other lung disease. Subjects were required to have FEV1 (forced expiratory volume in 1 second)>70% of predicted, baseline methacholine PC20 (the provocative concentration of methacholine causing a 20% fall in FEV1)<16 mg/mL, and development of an allergen-induced EAR (at least 20% fall in FEV1 within 2 h post allergen inhalation) and LAR (at least 15% fall FEV1 between 3-7 h post allergen inhalation).
(§2) Study design. Subjects meeting the inclusion criteria underwent allergen challenge with placebo and rosmarinic acid, in this order, separated by a washout period of at least 4 weeks. Placebo was inhaled PBS on 2 consecutive mornings before challenge. Rosmarinic acid treatment consisted of 7 days of 2 cups of tea per day. Day 6 consisted of pre-dose measurements of airway hyperresponsiveness and sputum cells. On Day 7 allergen inhalation challenge was performed. Measurements of FEV1 were taken at regular intervals until 7 h after challenge and sputum cells were then collected. […]
Methacholine inhalation challenge was performed as described by Cockcroft (1985). The test was terminated when a fall in FEV1 of 20% of the baseline value occurred, and the methacholine PC20 is calculated.

[2] = system: mild allergic asthmatic subjects; assay: Allergen inhalation challenge (allergen-induced bronchoconstriction, EAR and LAR); type: in vivo, human
Protocol: as §1, with “(person)” for “(45 and 57 year old, male)”
as §2
Allergen challenge was performed as described by O'Byrne (1987), and the concentration of allergen extract (Omega Laboratories, Montreal, QC) for inhalation was determined from a formula described by Cockcroft et al. (1987). […]

[3] = system: mild allergic asthmatic subjects; assay: Sputum analysis (allergen-induced airway inflammation, sputum eosinophils); type: in vivo, human; conditions: vs placebo, two subjects, FIGS. 4A-4B
Protocol: as §1, with “(person)” for “(45 and 57 year old, male)”
as §2
Sputum was induced and processed using the method described by Pizzichini et al. (1996). Differential cell counts were obtained and an aliquot of cells were lysed for quantitative PCR measurements.

[4] = Stability of rosmarinic acid in dried and stored spearmint 700B tissues; type: physicochemical; conditions: heated to 80° C. for an additional 24 hours after drying to 11.7% moisture
Protocol: The level of rosmarinic acid in dried and stored samples of spearmint line 700B tissues was followed over time to determine its stability. Spearmint plant tissue was harvested, dried, and stored, and levels of rosmarinic acid were determined essentially as described by Fletcher et al., (2005a). Plant material was harvested manually from the field and placed in large net bags. The bagged mint […] spread evenly over a grate and dried in a drying oven at a temperature of 35° C. for 96 hours. The stems and other debris were separated from the leaves, and the leaves were crushed to a size suitable for tea. The crushed leaf material was transferred to zip-lock bags and stored at room temperature in the absence of light. Additionally, to study the effect of drying temperature on stability of RA, a sample of spearmint plant material was dried to 11.7% moisture as above for determination of RA content. After 96 hours, a sample of the material was placed into a drying oven and heated to 80° C. for an additional 24 hours, and RA levels were also determined.

[5] = cited from earlier work
[6] = system: Aβ25-35-injected mice; conditions: Aβ25-35 injection; cited from earlier work
[7] = system: mice exposed to diesel dust particulates; conditions: 2 mg/day for 3 days prior to exposure; cited from earlier work
[8] = system: seasonal allergic rhinitis; conditions: active treatment; cited from earlier work

Amount of RA in the tissues before and after the 80° C. drying step [4]: remained the same
SMILES: O=C(/C=C/c1ccc(O)c(O)c1)O[C@H](Cc1ccc(O)c(O)c1)C(=O)O [RA, α-O-caffeoyl-3,4-dihydroxyphenyl-lactic acid]
Methacholine PC20 ([1]; subject 19, 24 h post allergen challenge (cat)): 0.38 mg/mL
Methacholine PC20 ([1]; subject 20, 24 h post allergen challenge (HDMDP)): 1.27 mg/mL
Allergen-induced EAR ([2]; subject #20, vs placebo, allergen 1:128 dilution with RA, 1:64 with diluent): lower
Effect on the allergen-induced EAR or LAR ([2]; two subjects, limited sample size): does not appear to have any effect
% sputum eosinophils post allergen [3]: consistently lower
Recovery of intact rosmarinic acid and metabolites in urine ([5]; rat urine): 0.077 % of the amount ingested
Time to full concentration in the blood plasma ([5]; rats, absorbed via the small intestine): ≤ 30 min
Effective lowest dose preventing Aβ25-35-induced nitration of proteins in the hippocampus [6]: 0.25 mg/kg
Protein and DNA damage in lung tissue (postmortem histological staining) compared to controls [7]: marked decrease
Numbers of neutrophils and eosinophils in nasal lavage fluid [8]: significantly decreased
